Measurements taken from US20250051335A1, “TAU-TUBULIN KINASE (TTBK) INHIBITOR COMPOUNDS” (CONSEJO SUPERIOR DE INVESTIGACIONES CIENTÍFICAS (CSIC), priority 2021, published 2025).

Experiments:
[1] = Permeability of the blood-brain barrier by PAMPA (porcine brain lipid); settings: for Prediction of crossing the BBB: based on Ep correlated with 10 control drugs; for Papp at 2.5 h: pig, pH 7.4
[2] = molecular target: recombinant human enzyme TTBK2(1-450) (Homo sapiens (Human), UniProt Q6IQ55); experiment: Enzymatic inhibition of TTBK2 (33P-ATP radiometric kinase assay); format: biochemical; settings: recombinant human TTBK2(1-450), 0.005 mM ATP, 30 minutes at room temperature
Sequence of recombinant human enzyme TTBK2(1-450) (Q6IQ55 1-450): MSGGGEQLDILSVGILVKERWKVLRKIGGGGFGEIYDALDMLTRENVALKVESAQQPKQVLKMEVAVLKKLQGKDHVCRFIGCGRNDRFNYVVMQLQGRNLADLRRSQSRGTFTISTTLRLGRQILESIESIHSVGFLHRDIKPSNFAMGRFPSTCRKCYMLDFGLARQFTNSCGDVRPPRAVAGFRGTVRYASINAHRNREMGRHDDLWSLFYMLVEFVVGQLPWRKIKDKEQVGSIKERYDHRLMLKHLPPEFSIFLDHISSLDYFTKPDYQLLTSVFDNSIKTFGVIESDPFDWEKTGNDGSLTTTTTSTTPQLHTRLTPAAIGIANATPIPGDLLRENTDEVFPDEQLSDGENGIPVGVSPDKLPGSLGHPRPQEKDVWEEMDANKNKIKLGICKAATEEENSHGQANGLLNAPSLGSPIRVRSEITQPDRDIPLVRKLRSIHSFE
Description: (§1) The final reaction mixture contains the peptide at a concentration of 0.3 mM, 10 mM magnesium acetate and 0.005 mM [33P-γ-ATP](50-1000 cpm/pmol). The reaction mixture is incubated for 30 minutes at room temperature and the reaction is stopped after the addition of 5 μl of orthophosphoric acid.

[3] = molecular target: recombinant human enzyme TTBK1 (1-1321) (Homo sapiens (Human), UniProt Q5TCY1); experiment: Enzymatic inhibition of TTBK1 (33P-ATP radiometric kinase assay); format: biochemical; settings: recombinant human TTBK1 (1-1321), 0.005 mM ATP, 30 minutes at room temperature
Sequence of recombinant human enzyme TTBK1 (1-1321) (Q5TCY1 whole entry): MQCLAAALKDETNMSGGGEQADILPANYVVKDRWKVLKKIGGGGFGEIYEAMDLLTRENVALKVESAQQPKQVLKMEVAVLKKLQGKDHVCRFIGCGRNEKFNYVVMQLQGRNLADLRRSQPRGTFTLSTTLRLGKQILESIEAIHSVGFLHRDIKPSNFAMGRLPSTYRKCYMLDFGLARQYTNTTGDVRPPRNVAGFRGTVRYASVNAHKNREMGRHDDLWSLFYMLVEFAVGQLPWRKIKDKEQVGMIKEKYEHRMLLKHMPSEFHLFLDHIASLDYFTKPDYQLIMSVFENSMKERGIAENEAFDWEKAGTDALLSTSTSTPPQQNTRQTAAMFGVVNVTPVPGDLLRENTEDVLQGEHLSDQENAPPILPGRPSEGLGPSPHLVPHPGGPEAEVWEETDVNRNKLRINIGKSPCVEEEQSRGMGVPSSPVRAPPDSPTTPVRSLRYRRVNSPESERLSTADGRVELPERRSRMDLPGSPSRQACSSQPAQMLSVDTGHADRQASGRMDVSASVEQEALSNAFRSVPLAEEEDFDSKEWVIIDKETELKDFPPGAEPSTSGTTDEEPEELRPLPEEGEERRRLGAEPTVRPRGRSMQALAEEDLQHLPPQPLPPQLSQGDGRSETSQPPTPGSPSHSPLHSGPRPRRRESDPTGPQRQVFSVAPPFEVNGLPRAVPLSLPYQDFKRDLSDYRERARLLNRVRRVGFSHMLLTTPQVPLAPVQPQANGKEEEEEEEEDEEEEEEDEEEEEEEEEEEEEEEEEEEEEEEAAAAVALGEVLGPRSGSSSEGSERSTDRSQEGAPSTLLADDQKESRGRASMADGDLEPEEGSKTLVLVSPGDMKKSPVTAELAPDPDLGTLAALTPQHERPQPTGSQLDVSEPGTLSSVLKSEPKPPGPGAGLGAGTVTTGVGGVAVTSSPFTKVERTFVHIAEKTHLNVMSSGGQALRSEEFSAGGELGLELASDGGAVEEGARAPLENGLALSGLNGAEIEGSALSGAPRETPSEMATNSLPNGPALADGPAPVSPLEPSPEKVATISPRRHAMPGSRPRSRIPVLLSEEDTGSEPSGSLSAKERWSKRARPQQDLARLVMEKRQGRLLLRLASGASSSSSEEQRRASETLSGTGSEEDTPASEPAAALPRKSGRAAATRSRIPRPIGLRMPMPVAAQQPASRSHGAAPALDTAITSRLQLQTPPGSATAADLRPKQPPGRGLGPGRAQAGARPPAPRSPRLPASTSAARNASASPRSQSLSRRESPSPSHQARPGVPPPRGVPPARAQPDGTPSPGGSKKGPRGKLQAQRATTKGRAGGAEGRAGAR
Description: as §1

Row | Compound | Prediction of crossing the BBB [1] | Papp at 2.5 h [1] [×10⁻⁶ cm/s] | IC50 [2] [µM] | IC50 [3] [µM]
1 | c1ccc(Oc2ccc(Nc3ncnc4[nH]ccc34)cc2)cc1 [Compound 1, N-(4-phenoxyphenyl)-7H-pyrrolo[2,3-d]pyrimidin-4-amine] | CNS+ | 23.2 ± 1.4 |  | 
2 | Clc1ccc(Oc2ccc(Nc3ncnc4[nH]ccc34)cc2)cc1 [Compound 2, N-[4-(4-chlorophenoxy)phenyl]-7H-pyrrolo[2,3-d]pyrimidin-4-amine] | CNS+ | 11.5 ± 1 |  | 
3 | Fc1ccc(Oc2ccc(Nc3ncnc4[nH]ccc34)cc2)cc1 [Compound 3, N-[4-(4-fluorophenoxy)phenyl]-7H-pyrrolo[2,3-d]pyrimidin-4-amine] | CNS+ | 15.6 ± 1.3 | 3.02 ± 0.82 | 0.77 ± 0.14
4 | COc1ccc(Oc2ccc(Nc3ncnc4[nH]ccc34)cc2)cc1 [Compound 5, N-[4-(4-methoxyphenoxy)phenyl]-7H-pyrrolo[2,3-d]pyrimidin-4-amine] | CNS+ | 11.8 ± 0.3 |  | 
5 | FC(F)(F)c1ccc(Oc2ccc(Nc3ncnc4[nH]ccc34)cc2)cc1 [Compound 6, N-[4-(4-trifluoromethylphenoxy)phenyl]-7H-pyrrolo[2,3-d]pyrimidin-4-amine] | CNS+ | 7.6 ± 1.4 |  | 
6 | Brc1ccc(Oc2ccc(Nc3ncnc4[nH]ccc34)cc2)cc1 [Compound 7, N-[4-(4-bromophenoxy)phenyl]-7H-pyrrolo[2,3-d]pyrimidin-4-amine] | CNS+ | 11 ± 1.2 |  | 
7 | O=[N+]([O-])c1ccc(Oc2ccc(Nc3ncnc4[nH]ccc34)cc2)cc1 [Compound 8, N-[4-(4-nitrophenoxy)phenyl]-7H-pyrrolo[2,3-d]pyrimidin-4-amine] | CNS+ | 14.3 ± 1.1 |  | 
8 | Cc1ccc(Oc2ccc(Nc3ncnc4[nH]ccc34)cc2)cc1 [Compound 10, N-[4-(4-methylphenoxy)phenyl]-7H-pyrrolo[2,3-d]pyrimidin-4-amine] | CNS+ | 18.7 ± 1.4 |  | 
9 | Cc1cccc(Oc2ccc(Nc3ncnc4[nH]ccc34)cc2)c1 [Compound 11, N-[4-(3-methylphenoxy)phenyl]-7H-pyrrolo[2,3-d]pyrimidin-4-amine] | CNS+ | 14 ± 0.4 |  | 
10 | Clc1cccc(Oc2ccc(Nc3ncnc4[nH]ccc34)cc2)c1 [Compound 12, N-[4-(3-chlorophenoxy)phenyl]-7H-pyrrolo[2,3-d]pyrimidin-4-amine] | CNS+ | 8.4 ± 1.6 | > 100 | 
11 | FC(F)(F)c1cccc(Oc2ccc(Nc3ncnc4[nH]ccc34)cc2)c1 [Compound 13, N-[4-(3-trifluoromethylphenoxy)phenyl]-7H-pyrrolo[2,3-d]pyrimidin-4-amine] | CNS+ | 6.8 ± 1.4 |  | 
12 | Clc1ccccc1Oc1ccc(Nc2ncnc3[nH]ccc23)cc1 [Compound 14, N-[4-(2-chlorophenoxy)phenyl]-7H-pyrrolo[2,3-d]pyrimidin-4-amine] | CNS+ | 9.7 ± 1 |  | 
13 | Clc1ccc(Oc2ccc(Nc3ncnc4[nH]ccc34)cc2)c(Cl)c1 [Compound 16, N-[4-(2.4-chlorophenoxy)phenyl]-7H-pyrrolo[2,3-d]pyrimidin-4-amine] | CNS+ | 17.3 ± 0.1 | 5.72 ± 2.65 | 2.3 ± 0.54
14 | COc1cccc(Oc2ccc(Nc3ncnc4[nH]ccc34)cc2)c1 [Compound 17, N-[4-(3-methoxyphenoxy)phenyl]-7H-pyrrolo[2,3-d]pyrimidin-4-amine] | CNS+ | 10.5 ± 0.7 |  | 
15 | Nc1nc(Nc2ccc(Oc3ccc(C(F)(F)F)cc3)cc2)c2cc[nH]c2n1 [Compound 18, N4-(4-(4-(trifluoromethyl)phenoxy)phenyl]-7H-pyrrolo[2,3-d]pyrimidine-2,4-diamine] | CNS+ | 7.5 ± 0.1 | 4.49 ± 1.16 | 0.58 ± 0.08
16 | Nc1nc(Nc2ccc(Oc3cccc(C(F)(F)F)c3)cc2)c2cc[nH]c2n1 [Compound 19, N4-(4-(3-(trifluoromethyl)phenoxy)phenyl]-7H-pyrrolo[2,3-d]pyrimidine-2,4-diamine] | CNS+ | 7.7 ± 0.6 | 3.9 ± 0.48 | 1.32 ± 0.04
17 | Nc1nc(Nc2ccc(Oc3ccc(Cl)cc3)cc2)c2cc[nH]c2n1 [Compound 20, N4-(4-(4-chlorophenoxy)phenyl]-7H-pyrrolo[2,3-d]pyrimidine-2,4-diamine] | CNS+ | 9.7 ± 1 |  | 
18 | Nc1nc(Nc2ccc(Oc3cccc(Cl)c3)cc2)c2cc[nH]c2n1 [Compound 21, N4-(4-(3-chlorophenoxy)phenyl)-7H-pyrrolo[2,3-d]pyrimidine-2,4-diamine] | CNS+ | 14.1 ± 0.4 | 3.05 ± 0.07 | 0.37 ± 0.12
19 | Nc1ccc(Sc2ccc(Nc3ncnc4[nH]ccc34)cc2)cc1 [Compound 23, N-[4-((4-aminophenyl)thio)phenyl]-7H-pyrrolo[2,3-d]pyrimidin-4-amine] | CNS+ | 4.7 ± 0.5 |  | 
20 | c1ccc(COc2ccc(Nc3ncnc4[nH]ccc34)cc2)cc1 [Compound 24, N-[4-(benzyloxy)phenyl]-7H-pyrrolo[2,3-d]pyrimidin-4-amine] | CNS+ | 18.3 ± 1.2 |  | 
21 | O=C(c1ccccc1)c1ccc(Nc2ncnc3[nH]ccc23)cc1 [Compound 25, (4-((7H-pyrrolo[2,3-d]pyrimidin-4-yl)amino)phenyl](phenyl)methanone] | CNS+ | 6.9 ± 0.6 |  | 
22 | O=C(c1ccc(F)cc1)c1ccc(Nc2ncnc3[nH]ccc23)cc1 [Compound 26, (4-((7H-pyrrolo[2,3-d]pyrimidin-4-yl)amino)phenyl](4-fluorophenyl)methanone] | CNS+ | 9.4 ± 0.4 |  | 
